Reference: patent US9409905B2, “Antibacterial compounds and methods for use” (PTC THERAPEUTICS, INC., priority 2011, dated 2016)
Values after ≈ are worked out from the molar mass of the structure shown.

What was measured:
[1] = system: Staphylococcus aureus (S. aureus) 29213; experiment: Antibacterial activity, microbroth dilution MIC (Table 1); type: cell-based; conditions: microbroth dilution, Gram-positive S. aureus 29213, read-out: MIC, 29213
Excerpt: (§1) The antibacterial activity from a microbroth dilution method may be presented as the minimum inhibitory concentration (MIC in μg/mL). The MIC value is the lowest concentration of drug which prevents macroscopically visible growth under test conditions.
(§2) Antibacterial activity of test compounds against the super sensitive Gram-negative Escherichia coli (E. coli) BAS849 bacterium, the control Gram-negative E. coli 25922 strain and the Gram-positive Staphylococcus aureus (S. aureus) 29213 bacterium are shown in Table 1.

[2] = system: Escherichia coli (E. coli) BAS849; experiment: as above; type: cell-based; conditions: microbroth dilution, super sensitive Gram-negative E. coli BAS849, read-out: MIC, BAS849
Excerpt: as §1, §2

E. coli LZ3111 = experiment: Antibacterial activity, MIC, quinolone resistant strain (Table 2); type: cell-based; conditions: Escherichia coli, LZ3111, read-out: MIC LZ3111
Excerpt: as §1
Mutations in these regions are known to confer a high level resistance to the quinolone class of antibiotics.

E. coli 25922 = experiment: Antibacterial activity, microbroth dilution MIC (Table 1); type: cell-based, Escherichia coli; conditions: Escherichia coli; microbroth dilution; control Gram-negative E. coli 25922 strain; read-out: MIC, 25922
Excerpt: as §1, §2

SMILES	MIC [1]	MIC [2]	MIC (E. coli LZ3111)	MIC (E. coli 25922)
CCc1cc(C(=O)O)c(=O)[nH]c1-c1ccc2c(c1)cc(C1=NCCCN1)n2C [Cpd 86, 5-ethyl-6-(1-methyl-2-(1,4,5,6-tetrahydropyrimidin-2-yl)-1H-indol-5-yl)-2-oxo-1,2-dihydropyridine-3-carboxylic acid]	12.5 to 150 µg/mL (≈ 33 to 396 µM)	12.5 to 150 µg/mL (≈ 33 to 396 µM)	12.5 to 150 µg/mL (≈ 33 to 396 µM)	12.5 to 150 µg/mL (≈ 33 to 396 µM)
CCc1cc(C(=O)O)c(=O)[nH]c1-c1ccc2c(c1)cc(C(C)(C)N(C)C)n2C [Cpd 87, 6-(2-(2-(dimethylamino)propan-2-yl)-1-methyl-1H-indol-5-yl)-5-ethyl-2-oxo-1,2-dihydropyridine-3-carboxylic acid]	12.5 to 150 µg/mL (≈ 32.8 to 393 µM)	< 1 µg/mL	12.5 to 150 µg/mL (≈ 32.8 to 393 µM)	3.5 to 12.5 µg/mL (≈ 9.17 to 32.8 µM)
CCc1cc(C(=O)O)c(=O)[nH]c1-c1ccc2c(c1)cc(C(C)(C)N1CCCC1)n2C [Cpd 88, 5-ethyl-6-(1-methyl-2-(2-(pyrrolidin-1-yl)propan-2-yl)-1H-indol-5-yl)-2-oxo-1,2-dihydropyridine-3-carboxylic acid]	12.5 to 150 µg/mL (≈ 30.7 to 368 µM)	< 1 µg/mL	12.5 to 150 µg/mL (≈ 30.7 to 368 µM)	3.5 to 12.5 µg/mL (≈ 8.59 to 30.7 µM)
CCc1cc(C(=O)O)c(=O)[nH]c1-c1cc2cc(CN3CCCC3)n(C)c2cc1C [Cpd 89, 6-(1,6-dimethyl-2-(pyrrolidin-1-ylmethyl)-1H-indol-5-yl)-5-ethyl-2-oxo-1,2-dihydropyridine-3-carboxylic acid]	12.5 to 150 µg/mL (≈ 31.8 to 381 µM)	12.5 to 150 µg/mL (≈ 31.8 to 381 µM)	12.5 to 150 µg/mL (≈ 31.8 to 381 µM)	12.5 to 150 µg/mL (≈ 31.8 to 381 µM)
CCc1cc(C(=O)O)c(=O)[nH]c1-c1cc2cc(CN3CCCCC3)n(C)c2cc1C [Cpd 90, 6-(1,6-dimethyl-2-(piperidin-1-ylmethyl)-1H-indol-5-yl)-5-ethyl-2-oxo-1,2-dihydropyridine-3-carboxylic acid]	12.5 to 150 µg/mL (≈ 30.7 to 368 µM)	12.5 to 150 µg/mL (≈ 30.7 to 368 µM)	12.5 to 150 µg/mL (≈ 30.7 to 368 µM)	12.5 to 150 µg/mL (≈ 30.7 to 368 µM)
CCc1cc(C(=O)O)c(=O)[nH]c1-c1cc2cc(CN3CCOCC3)n(C)c2cc1Cl [Cpd 91, 6-(6-chloro-1-methyl-2-(morpholinomethyl)-1H-indol-5-yl)-5-ethyl-2-oxo-1,2-dihydropyridine-3-carboxylic acid]	12.5 to 150 µg/mL (≈ 29.1 to 349 µM)	12.5 to 150 µg/mL (≈ 29.1 to 349 µM)	12.5 to 150 µg/mL (≈ 29.1 to 349 µM)	12.5 to 150 µg/mL (≈ 29.1 to 349 µM)
CCc1cc(C(=O)O)c(=O)[nH]c1-c1cc2cc(CN(CC)CC)n(C)c2cc1Cl [Cpd 92, 6-(6-chloro-2-((diethylamino)methyl)-1-methyl-1H-indol-5-yl)-5-ethyl-2-oxo-1,2-dihydropyridine-3-carboxylic acid]	12.5 to 150 µg/mL (≈ 30.1 to 361 µM)	12.5 to 150 µg/mL (≈ 30.1 to 361 µM)	12.5 to 150 µg/mL (≈ 30.1 to 361 µM)	12.5 to 150 µg/mL (≈ 30.1 to 361 µM)
CCc1cc(C(=O)O)c(=O)[nH]c1-c1cc2cc(CN(C)C)n(C)c2cc1Cl [Cpd 93, 6-(6-chloro-2-((dimethylamino)methyl)-1-methyl-1H-indol-5-yl)-5-ethyl-2-oxo-1,2-dihydropyridine-3-carboxylic acid]	12.5 to 150 µg/mL (≈ 32.2 to 387 µM)	12.5 to 150 µg/mL (≈ 32.2 to 387 µM)	12.5 to 150 µg/mL (≈ 32.2 to 387 µM)	12.5 to 150 µg/mL (≈ 32.2 to 387 µM)
CCc1cc(C(=O)O)c(=O)[nH]c1-c1cc2cc(CN3CCOCC3)n(C)c2cc1C [Cpd 94, 6-(1,6-dimethyl-2-(morpholinomethyl)-1H-indol-5-yl)-5-ethyl-2-oxo-1,2-dihydropyridine-3-carboxylic acid]	12.5 to 150 µg/mL (≈ 30.5 to 366 µM)	12.5 to 150 µg/mL (≈ 30.5 to 366 µM)	12.5 to 150 µg/mL (≈ 30.5 to 366 µM)	12.5 to 150 µg/mL (≈ 30.5 to 366 µM)
CCc1cc(C(=O)O)c(=O)[nH]c1-c1cc2cc(CN(CC)CC)n(C)c2cc1C [Cpd 95, 6-(2-((diethylamino)methyl)-1,6-dimethyl-1H-indol-5-yl)-5-ethyl-2-oxo-1,2-dihydropyridine-3-carboxylic acid]	12.5 to 150 µg/mL (≈ 31.6 to 379 µM)	12.5 to 150 µg/mL (≈ 31.6 to 379 µM)	12.5 to 150 µg/mL (≈ 31.6 to 379 µM)	12.5 to 150 µg/mL (≈ 31.6 to 379 µM)
CCc1cc(C(=O)O)c(=O)[nH]c1-c1cc2cc(CN(C)C)n(C)c2cc1C [Cpd 96, 6-(2-((dimethylamino)methyl)-1,6-dimethyl-1H-indol-5-yl)-5-ethyl-2-oxo-1,2-dihydropyridine-3-carboxylic acid]	12.5 to 150 µg/mL (≈ 34 to 408 µM)	12.5 to 150 µg/mL (≈ 34 to 408 µM)	12.5 to 150 µg/mL (≈ 34 to 408 µM)	12.5 to 150 µg/mL (≈ 34 to 408 µM)
CCc1cc(C(=O)O)c(=O)[nH]c1-c1cc(F)c2c(c1)cc(CN1CCCC1)n2C [Cpd 97, 5-ethyl-6-(7-fluoro-1-methyl-2-(pyrrolidin-1-ylmethyl)-1H-indol-5-yl)-2-oxo-1,2-dihydropyridine-3-carboxylic acid]	12.5 to 150 µg/mL (≈ 31.5 to 377 µM)	< 1 µg/mL	12.5 to 150 µg/mL (≈ 31.5 to 377 µM)	1 to 3.5 µg/mL (≈ 2.52 to 8.81 µM)
CCc1cc(C(=O)O)c(=O)[nH]c1-c1cc(F)c2c(c1)cc(CN1CCOCC1)n2C [Cpd 98, 5-ethyl-6-(7-fluoro-1-methyl-2-(morpholinomethyl)-1H-indol-5-yl)-2-oxo-1,2-dihydropyridine-3-carboxylic acid]	12.5 to 150 µg/mL (≈ 30.2 to 363 µM)	< 1 µg/mL	12.5 to 150 µg/mL (≈ 30.2 to 363 µM)	3.5 to 12.5 µg/mL (≈ 8.47 to 30.2 µM)
